The values below come from ChEMBL document CHEMBL4376816, “Discovery of the Oral Leukotriene C4 Synthase Inhibitor (1S,2S)-2-({5-[(5-Chloro-2,4-difluorophenyl)(2-fluoro-2-methylpropyl)amino]-3-methoxypyrazin-2-yl}carbonyl)cyclopropanecarboxylic Acid (AZD9898) as a New Treatment for Asthma” (J Med Chem, 2019).

Series [1] has as its target T1, Leukotriene C4 synthase (Homo sapiens) (UniProt Q16873).
T1 sequence (whole entry): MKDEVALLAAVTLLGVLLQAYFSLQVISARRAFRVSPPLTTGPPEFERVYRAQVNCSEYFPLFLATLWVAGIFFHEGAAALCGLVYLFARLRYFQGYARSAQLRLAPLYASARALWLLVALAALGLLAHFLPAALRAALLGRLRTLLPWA
The series can be described thus: Inhibition of LTC4S in healthy human whole blood assessed as inhibition of calcium ionophore A23187 stimulated cysteinyl leukotrienes production preincuabted for 30 mins followed by calcium ionophore stimulation and measured after 10 mins by LC-MS analysis. It is filed as tissue-based.

The target in series [2] is T1, Leukotriene C4 synthase (Homo sapiens). Briefly: Inhibition of LTC4S in asthmatic human whole blood assessed as inhibition of calcium ionophore A23187 stimulated cysteinyl leukotrienes production preincuabted for 30 mins followed by calcium ionophore stimulation and measured after 10 mins by LC-MS analysis. It is filed as tissue-based.
Series [3] has as its target T2, Leukotriene C4 synthase (Homo sapiens, UniProt Q16873).
T2 sequence (Q16873 whole entry): T1 sequence (whole entry)

A short description of series [4]: Fraction unbound in Sprague-Dawley rat plasma by equilibrium dialysis based LC-MS analysis. It is filed as ADME, cell-free.
Series [5] is described as follows: Fraction unbound in Beagle dog plasma by equilibrium dialysis based LC-MS analysis. It is filed as ADME, cell-free, Canis lupus familiaris. In general terms: In equilibrium dialysis only unbound substance equilibrates across the membrane.
Series [6] is described as follows: Fraction unbound in human plasma by equilibrium dialysis based LC-MS analysis. It is filed as ADME, cell-free.
The nature of series [7]: Effective half life in Beagle dog at 1 mg/kg, iv infusion or 2 mg/kg, po via gavage after 48 hrs. It is filed as ADME, organism-based, Canis lupus familiaris. The note with it: in vivo, read-out: t1/2eff (converted).
A short description of series [8]: Effective half life in Han Wistar rat at 0.5 mg/kg, iv or 1 mg/kg, po after 24 hrs. It is filed as ADME, organism-based. The note with it: in vivo, read-out: t1/2eff (converted).
Series [9] can be described thus: Oral bioavailability in Beagle dog at 2 mg/kg via gavage after 48 hrs. It is filed as ADME, organism-based, Canis lupus familiaris. The note with it: in vivo.
Series [10] in a line: Oral bioavailability in Han Wistar rat at 1 mg/kg after 24 hrs. It is filed as ADME, organism-based. The note with it: in vivo.
Series [11] in a line: Octanol/Sodium phosphate buffer partition coefficient, log D of compound at pH 7.4 at 1 mg incubated for overnight under shaking condition by LC-MS/MS analysis. It is filed as physicochemical.
Series [12] can be described thus: Intrinsic clearance in human hepatocytes at 1 uM assessed as per million cells after 2 to 60 mins by LC-MS/MS analysis. It is filed as ADME, cell-based, Hepatocyte. The note with it: read-out: CLH.
Series [13] relates to Rattus norvegicus. Briefly: In vivo inhibition of LTC4S in po dosed Sprague-Dawley rat assessed as unbound drug concentration required for inhibition of calcium ionophore A23187-induced cysteinyl leukotrienes production in BAL fluid by LC-MS/MS analysis. It is filed as functional.
Series [14] in a line: Thermodynamic solubility of compound in pH 7.4 PBS at 1 mg/ml incubated for 24 hrs under shaking condition by LC-MS/MS analysis. It is filed as physicochemical. The note with it: read-out: Therm_solubility.
A short description of series [15]: Clearance in Han Wistar rat at 0.5 mg/kg, iv or 1 mg/kg, po after 24 hrs. It is filed as ADME, organism-based. The note with it: in vivo.
Series [16] is described as follows: Clearance in Beagle dog at 1 mg/kg, iv infusion or 2 mg/kg, po via gavage after 48 hrs. It is filed as ADME, organism-based, Canis lupus familiaris. The note with it: in vivo.
A short description of series [17]: Volume of distribution at steady state in Han Wistar rat at 0.5 mg/kg, iv or 1 mg/kg, po after 24 hrs. It is filed as ADME, organism-based. The note with it: in vivo, read-out: Vdss.
Series [18] is described as follows: Volume of distribution at steady state in Beagle dog at 1 mg/kg, iv infusion or 2 mg/kg, po via gavage after 48 hrs. It is filed as ADME, organism-based, Canis lupus familiaris. The note with it: in vivo, read-out: Vdss.
A short description of series [19]: Displacement of [3H]-GABA/[3]-muscimol from GABA gated chloride channel in Sprague-Dawley rat cortical synoptic membranes by liquid scintillation analysis.
Series [20] has as its target T3, Solute carrier organic anion transporter family member 1B1 (Homo sapiens, UniProt Q9Y6L6).
T3 sequence (Q9Y6L6 whole entry): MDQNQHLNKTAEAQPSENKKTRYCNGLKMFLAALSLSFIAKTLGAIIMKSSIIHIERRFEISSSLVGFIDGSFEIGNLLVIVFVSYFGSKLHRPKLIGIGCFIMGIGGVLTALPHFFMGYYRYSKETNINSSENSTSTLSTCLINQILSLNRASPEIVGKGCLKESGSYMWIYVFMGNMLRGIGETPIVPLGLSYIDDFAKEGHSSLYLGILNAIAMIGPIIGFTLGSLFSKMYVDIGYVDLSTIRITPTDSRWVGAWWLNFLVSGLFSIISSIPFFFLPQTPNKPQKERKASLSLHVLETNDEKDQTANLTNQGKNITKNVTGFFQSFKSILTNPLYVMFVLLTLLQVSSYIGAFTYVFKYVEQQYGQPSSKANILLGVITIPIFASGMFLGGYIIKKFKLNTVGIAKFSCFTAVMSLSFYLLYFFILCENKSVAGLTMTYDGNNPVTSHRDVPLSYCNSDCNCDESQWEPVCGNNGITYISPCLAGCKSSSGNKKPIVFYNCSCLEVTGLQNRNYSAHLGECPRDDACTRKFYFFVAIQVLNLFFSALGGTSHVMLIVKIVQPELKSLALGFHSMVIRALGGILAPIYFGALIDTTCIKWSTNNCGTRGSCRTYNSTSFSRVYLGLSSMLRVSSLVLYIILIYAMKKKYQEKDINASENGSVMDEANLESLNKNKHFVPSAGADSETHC
Briefly: Inhibition of OATP1B1 (unknown origin) expressed in HEK293 cells measured after 0.5 to 20 mins by scintillation counting analysis. It is filed as ADME, cell-based.

The nature of series [21]: Cmax in po dosed rat at NOAEL measured after 7 days. It is filed as ADME, organism-based. Also on record: route oral. The note with it: in vivo.
The nature of series [22]: AUC in po dosed rat at NOAEL measured after 7 days. It is filed as ADME, organism-based. The note with it: in vivo.
In series [23] the target is T4, Cytochrome P450 1A2 (Homo sapiens, UniProt P05177).
T4 sequence (P05177 whole entry): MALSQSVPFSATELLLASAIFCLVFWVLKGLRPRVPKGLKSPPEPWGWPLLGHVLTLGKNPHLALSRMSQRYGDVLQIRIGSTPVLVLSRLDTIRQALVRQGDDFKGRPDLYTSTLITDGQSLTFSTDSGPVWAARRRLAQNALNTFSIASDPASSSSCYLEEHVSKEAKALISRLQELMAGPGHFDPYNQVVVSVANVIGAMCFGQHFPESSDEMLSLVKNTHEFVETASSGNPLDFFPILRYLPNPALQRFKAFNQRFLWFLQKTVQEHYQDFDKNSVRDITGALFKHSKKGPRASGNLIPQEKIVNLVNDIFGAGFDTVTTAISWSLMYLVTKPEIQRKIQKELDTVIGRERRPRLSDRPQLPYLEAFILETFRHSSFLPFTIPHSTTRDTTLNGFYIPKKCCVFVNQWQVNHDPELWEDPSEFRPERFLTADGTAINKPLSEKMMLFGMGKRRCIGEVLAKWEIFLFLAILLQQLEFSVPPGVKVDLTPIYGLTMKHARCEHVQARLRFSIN
The series can be described thus: Inhibition of recombinant human CYP1A2 using coumarin based substrate by fluorescence assay. It is filed as ADME.

Series [24] has as its target Cytochrome P450 2C9 (Homo sapiens, UniProt P11712). Briefly: Inhibition of recombinant human CYP2C9 expressed in Escherichia coli using coumarin based substrate by fluorescence assay. It is filed as ADME.
Series [25] addresses Cytochrome P450 2C19 (Homo sapiens, UniProt P33261). The series can be described thus: Inhibition of recombinant human CYP2C19 using coumarin based substrate by fluorescence assay. It is filed as ADME.
Series [26] has as its target Cytochrome P450 3A4 (Homo sapiens, UniProt P08684). The series can be described thus: Inhibition of recombinant human CYP3A4 expressed in Escherichia coli using coumarin based substrate by fluorescence assay. It is filed as ADME.
Series [27] addresses Cytochrome P450 2D6 (Homo sapiens, UniProt P10635). The series can be described thus: Inhibition of recombinant human CYP2D6 using coumarin based substrate by fluorescence assay. It is filed as ADME.
Series [28] is described as follows: Cmax in po dosed rat at LOAEL measured after 7 days. It is filed as ADME, organism-based. Also noted: route oral. The note with it: in vivo.
A short description of series [29]: AUC in po dosed rat at LOAEL measured after 7 days. The note with it: in vivo. It is filed as ADME, organism-based.
Series [30] is described as follows: Toxicity in rat assessed as sperm granuloma at 300 mg/kg, po after 7 days. It is filed as organism-based. The note with it: in vivo.
The nature of series [31]: Toxicity in rat assessed as bilirubinemia at 300 mg/kg, po after 7 days. The note with it: in vivo. It is filed as organism-based.
Series [32] in a line: Toxicity in rat assessed as liver hypertrophy at 300 mg/kg, po after 7 days. It is filed as organism-based. The note with it: in vivo.
Series [33] deals with Voltage-gated inwardly rectifying potassium channel KCNH2 (Homo sapiens, UniProt Q12809). Briefly: Inhibition of human ERG by electrophysiology based assay.
Series [34] is described as follows: Toxicity in rat assessed as unilateral sperm granuloma at 300 mg/kg, po after 7 days. It is filed as organism-based. The note with it: in vivo.
Series [35] can be described thus: Apparent permeability across apical to basolateral side in human Caco2 cells. The note with it: Caco-2. Background: Passage across Caco-2 layers is used to estimate intestinal permeability.

Values after ≈ are worked out from the molar mass of the structure shown. Active and inactive are the calls of the source. The calls are words filed in the database; no cut-off is given here.

Sequence of Cytochrome P450 2C9 (P11712 whole entry): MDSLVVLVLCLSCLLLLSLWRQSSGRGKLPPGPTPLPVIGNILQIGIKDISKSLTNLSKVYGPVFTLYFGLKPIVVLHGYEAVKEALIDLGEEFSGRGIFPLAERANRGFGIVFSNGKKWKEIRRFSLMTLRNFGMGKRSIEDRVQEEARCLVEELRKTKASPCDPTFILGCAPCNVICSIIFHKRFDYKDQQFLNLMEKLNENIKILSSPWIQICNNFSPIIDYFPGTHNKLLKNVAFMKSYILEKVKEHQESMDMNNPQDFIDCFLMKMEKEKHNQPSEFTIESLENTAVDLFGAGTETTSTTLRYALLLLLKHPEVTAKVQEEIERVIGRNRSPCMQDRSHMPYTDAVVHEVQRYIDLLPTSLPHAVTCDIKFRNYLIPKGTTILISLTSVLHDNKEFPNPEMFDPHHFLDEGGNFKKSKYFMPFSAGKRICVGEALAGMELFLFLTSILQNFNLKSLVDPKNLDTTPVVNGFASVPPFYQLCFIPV
Sequence of Cytochrome P450 2C19 (P33261 whole entry): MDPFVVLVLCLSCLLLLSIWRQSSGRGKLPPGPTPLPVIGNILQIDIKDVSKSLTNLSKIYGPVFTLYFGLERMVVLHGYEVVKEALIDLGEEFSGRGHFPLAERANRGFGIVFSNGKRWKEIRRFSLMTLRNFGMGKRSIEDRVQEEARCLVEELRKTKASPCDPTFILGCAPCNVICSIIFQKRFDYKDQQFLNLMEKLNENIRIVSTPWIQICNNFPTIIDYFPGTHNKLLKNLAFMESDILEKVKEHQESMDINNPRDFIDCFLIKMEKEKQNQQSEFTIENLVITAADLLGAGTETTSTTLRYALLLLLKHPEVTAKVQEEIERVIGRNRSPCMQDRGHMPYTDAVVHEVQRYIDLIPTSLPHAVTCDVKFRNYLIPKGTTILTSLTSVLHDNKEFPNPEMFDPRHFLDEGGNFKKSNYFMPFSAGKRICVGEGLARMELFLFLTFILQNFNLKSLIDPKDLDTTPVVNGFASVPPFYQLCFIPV
Sequence of Voltage-gated inwardly rectifying potassium channel KCNH2 (Q12809 whole entry): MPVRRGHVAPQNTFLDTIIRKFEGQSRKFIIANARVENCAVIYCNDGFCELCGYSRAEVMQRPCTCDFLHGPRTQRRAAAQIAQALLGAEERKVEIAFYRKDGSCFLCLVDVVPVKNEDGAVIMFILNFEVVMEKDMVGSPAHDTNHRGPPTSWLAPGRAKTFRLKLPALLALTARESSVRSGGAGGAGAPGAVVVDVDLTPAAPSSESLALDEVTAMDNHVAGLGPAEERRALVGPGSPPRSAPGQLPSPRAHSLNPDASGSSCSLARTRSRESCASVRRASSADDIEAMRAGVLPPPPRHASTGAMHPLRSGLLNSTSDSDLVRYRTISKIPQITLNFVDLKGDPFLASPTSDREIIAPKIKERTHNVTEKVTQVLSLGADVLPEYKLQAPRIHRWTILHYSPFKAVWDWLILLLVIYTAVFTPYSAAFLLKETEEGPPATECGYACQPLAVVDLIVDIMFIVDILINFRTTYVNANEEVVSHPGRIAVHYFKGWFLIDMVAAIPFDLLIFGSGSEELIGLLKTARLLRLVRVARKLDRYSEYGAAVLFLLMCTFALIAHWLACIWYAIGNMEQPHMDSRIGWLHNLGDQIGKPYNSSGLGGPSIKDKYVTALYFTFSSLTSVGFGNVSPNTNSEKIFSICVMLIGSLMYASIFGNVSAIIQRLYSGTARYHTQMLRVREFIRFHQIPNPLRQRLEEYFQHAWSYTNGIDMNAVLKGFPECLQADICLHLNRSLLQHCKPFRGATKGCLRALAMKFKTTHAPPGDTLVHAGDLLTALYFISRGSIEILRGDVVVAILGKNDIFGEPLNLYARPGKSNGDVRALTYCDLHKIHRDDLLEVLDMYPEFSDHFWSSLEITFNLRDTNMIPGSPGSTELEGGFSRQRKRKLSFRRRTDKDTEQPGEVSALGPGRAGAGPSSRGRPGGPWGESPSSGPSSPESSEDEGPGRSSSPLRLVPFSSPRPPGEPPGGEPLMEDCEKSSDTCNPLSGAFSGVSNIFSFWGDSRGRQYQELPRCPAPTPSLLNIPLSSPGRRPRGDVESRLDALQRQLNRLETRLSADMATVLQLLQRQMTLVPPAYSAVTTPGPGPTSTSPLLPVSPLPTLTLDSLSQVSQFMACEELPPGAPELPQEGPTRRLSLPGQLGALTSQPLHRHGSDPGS
Sequence of Cytochrome P450 3A4 (P08684 whole entry): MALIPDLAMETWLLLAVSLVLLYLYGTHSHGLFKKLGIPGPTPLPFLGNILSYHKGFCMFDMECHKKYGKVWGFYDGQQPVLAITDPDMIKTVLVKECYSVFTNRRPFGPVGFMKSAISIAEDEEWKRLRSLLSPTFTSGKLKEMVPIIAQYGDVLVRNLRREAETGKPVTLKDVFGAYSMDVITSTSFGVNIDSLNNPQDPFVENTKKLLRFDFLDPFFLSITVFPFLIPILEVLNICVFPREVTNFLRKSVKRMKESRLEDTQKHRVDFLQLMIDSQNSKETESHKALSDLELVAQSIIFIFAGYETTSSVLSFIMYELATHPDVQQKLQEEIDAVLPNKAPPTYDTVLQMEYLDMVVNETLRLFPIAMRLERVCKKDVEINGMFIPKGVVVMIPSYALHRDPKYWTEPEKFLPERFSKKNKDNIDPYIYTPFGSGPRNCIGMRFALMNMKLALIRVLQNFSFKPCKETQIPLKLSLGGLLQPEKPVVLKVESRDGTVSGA
Sequence of Cytochrome P450 2D6 (P10635 whole entry): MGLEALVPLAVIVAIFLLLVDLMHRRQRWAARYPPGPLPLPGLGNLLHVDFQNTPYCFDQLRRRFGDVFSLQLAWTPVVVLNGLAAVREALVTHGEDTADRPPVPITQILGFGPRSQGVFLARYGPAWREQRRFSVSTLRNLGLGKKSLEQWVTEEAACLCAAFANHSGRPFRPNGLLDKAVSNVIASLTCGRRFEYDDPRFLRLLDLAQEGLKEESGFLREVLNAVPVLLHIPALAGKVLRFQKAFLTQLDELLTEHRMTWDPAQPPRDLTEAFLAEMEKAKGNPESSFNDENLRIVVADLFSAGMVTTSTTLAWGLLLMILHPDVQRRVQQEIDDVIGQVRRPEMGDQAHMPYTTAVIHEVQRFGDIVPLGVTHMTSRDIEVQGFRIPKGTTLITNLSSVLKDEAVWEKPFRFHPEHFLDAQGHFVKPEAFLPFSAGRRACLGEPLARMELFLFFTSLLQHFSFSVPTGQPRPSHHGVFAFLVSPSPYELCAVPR

The term IC50 denotes the midpoint of a concentration-inhibition curve. Consider `CC(C)(O)c1ccccc1CC[C@@H](SCC1(CC(=O)O)CC1)c1cccc(/C=C/c2ccc3ccc(Cl)cc3n2)c1` [MONTELUKAST], for which the inhibition result in series [1] and in series [2] was “Active” throughout. Also, the 50% inhibitory concentration (IC50) in [3] is below 5 µM.

In general, fraction unbound refers to free concentration divided by total concentration. High values mean weak binding, low ones extensive binding. Usually bioavailability stands for the share of a dose that reaches the circulation, judged against a reference dose that is usually intravenous. A high value points to much systemic uptake. The logD is the decadic logarithm of the distribution of all forms, ionised or not, between an organic phase and buffer at a given pH. What is called Cmax is the maximum level reached in the sampled fluid or tissue. The AUC is concentration integrated over time. The low end stands for low exposure, the high end for high exposure. What is called Papp A→B is how fast a substance crosses the layer from the apical side. As for `COc1cc(N(CC2CC2)c2ccc(Cl)c3ccccc23)cnc1C(=O)[C@H]1C[C@@H]1C(=O)O`, the unbound share (fraction unbound) amounted to 0.0062 in series [4], 0.0021 in series [5] and 0.0066 in series [6]. For the same compound, the half-life in series [7] is 4.8 h; in series [8] it was 2.7 h. In addition, the bioavailability in series [9] came to 91%; in series [10], 46%. Moreover, in series [11], the logD was 2.4. Further, the hepatocyte CLint at 1 µM in [12] worked out at 5 µL/min/1e6 cells. Further, the fEC50 in [13] was 7.5 nM. The solubility thermodynamic at 24 h in series [14] was found to be 576 µM (≈ 260 µg/mL). The clearance amounted to 12 mL/min/kg in series [15] and 2.4 mL/min/kg in series [16]. Moreover, the Vd in [17] came out at 2.8 L/kg; in series [18], 1.1 L/kg. The IC50 in series [19] was 0.074 µM; in series [23], above 20 µM; in series [24] it was above 20 µM; in [25] it was above 20 µM; in series [26] it was above 20 µM; in series [27] it was above 20 µM. Also, in [20], the INH amounted to 0.6 µM. The results for the maximum concentration (Cmax) at […] in series [21] and in [28] were 47 µM and 144 µM, respectively. Moreover, the AUC in series [22] was found to be 200 µM·h; in [29] it was 1830 µM·h. Besides, the Activity result in [30], in series [31], in series [32] and in [34] was “Toxic” in each case. Also, the “inhibition (INH)” value in series [33] is “Not Active”. The Papp A→B in series [35] was found to be 105 ×10⁻⁶ cm/s.
